From patent US20210246115A1 (Bioimics AB, priority 2017, published 2021)
Where a name gives a salt, the structure may show the parent alone.

Tests used:
[1] = tested on: Staphylococcus aureus (ATCC25923); assay: MIC, broth microdilution (CLSI), Staphylococcus aureus ATCC25923; conditions: Staphylococcus aureus, ATCC25923, read-out: S. aureus ATCC 25923 MIC
[2] = tested on: E. coli RNase P RNA, M1 RNA; assay: Inhibition of bacterial RNase P activity, IC50 determination (cleavage of pATSerUG by M1 RNA); format: biochemical; conditions: NI: No inhibition
[3] = tested on: Escherichia coli (ATCC25922); assay: MIC, broth microdilution (CLSI), Escherichia coli; conditions: Escherichia coli, ATCC25922, read-out: E. coli ATCC 25922 MIC, Table XIII

## Cl.N[C@H]1CC[C@H](NC(=O)CC(c2cn(CC3CCCCC3)c3ccccc23)C2CCCCC2)CC1 (stereo partly drawn) [Compound 162, N-((1R,4R)-4-aminocyclohexyl)-3-cyclohexyl-3-(1-(cyclohexylmethyl)-1H-indol-3-yl)propanamide hydrochloride salt]
[1]
  MIC: 4 µg/mL
[2]
  IC50: 9 µM
[3]
  MIC: 32 µg/mL

## N[C@H]1CC[C@@H](NC(=O)c2coc(CN(CCc3c[nH]c4ccccc34)Cc3ccc(F)cc3)n2)CC1 [Compound 61, 2-(((2-(1H-indol-3-yl)ethyl)(4-fluorobenzyl)amino)methyl)-N-((1s,4s)-4-aminocyclohexyl) oxazole-4-carboxamide hydrochloride salt]
[1]
  MIC: 63 µg/mL
[2]
  IC50: 182 µM
[3]
  MIC: 251 µg/mL

## Cl.N[C@H]1CC[C@H](NC(=O)c2cn(CC3CCCCC3)c3ccc(Br)cc23)CC1 [Compound 268, N-((1R,4R)-4-aminocyclohexyl)-5-bromo-1-(cyclohexylmethyl)-1H-indole-3-carboxamide hydrochloride salt]
[1]
  MIC: 15 µg/mL
[2]
  IC50: 59 µM
[3]
  MIC: 30 µg/mL

## Cl.N[C@H]1CC[C@H](NC(=O)CCc2cn(CC3CCCCC3)c3ccccc23)CC1 [Compound 116, N-((1r,4r)-4-aminocyclohexyl)-3-(1-(cyclohexylmethyl)-1H-indol-3-yl)propanamide hydrochloride salt]
[1]
  MIC: 128 µg/mL
[2]
  IC50: 158 µM
[3]
  MIC: 128 µg/mL

## Cc1cccc(C(CC(=O)N[C@H]2CC[C@H](N)CC2)c2cn(Cc3ccccc3)c3ccccc23)c1.Cl (stereo partly drawn) [Compound 64, N-((1R,4R)-4-aminocyclohexyl)-3-(1-benzyl-1H-indol-3-yl)-3-(m-tolyl)propanamide salt]
[1]
  MIC: 64 µg/mL
[2]
  IC50: 58 µM
[3]
  MIC: > 512 µg/mL

## Cl.O=C(Cc1cn(CC2CCC(F)(F)CC2)c2ccc(Br)cc12)NC1CCNCC1 [Compound 277, 2-(5-bromo-1-((4,4-difluorocyclohexyl)methyl)-1H-indol-3-yl)-N-(piperidin-4-yl)acetamide hydrochloride salt]
[1]
  MIC: 65 µg/mL
[2]
  IC50: 229 µM
[3]
  MIC: 129 µg/mL

## Cc1cccc(C(CC(=O)NC2CCC(N)CC2)c2cn(CC3CCCCC3)c3ccc(-c4ccncc4)cc23)c1 (stereo not drawn) [Compound 188, N-(4-aminocyclohexyl)-3-(1-(cyclohexylmethyl)-5-(pyridin-4-yl)-1H-indol-3-yl)-3-(m-tolyl) propanamide hydrochloride salt]
[1]
  MIC: 5 µg/mL
[2]
  IC50: 5.8 µM
[3]
  MIC: > 512 µg/mL

## Cc1cccc(-c2ccc3c(c2)c(CCCN[C@H]2CC[C@H](N)CC2)cn3CC2CCCCC2)c1 [Compound 207, (1R,4R)-N1-(3-(1-(cyclohexylmethyl)-5-(m-tolyl)-1H-indol-3-yl)propyl)cyclohexane-1,4-diamine hydrochloride salt]
[1]
  MIC: 4 µg/mL
[2]
  IC50: 17 µM
[3]
  MIC: 4 µg/mL

## O=C(CC(c1cn(CC2CCCCC2)c2ccccc12)C1CCNCC1)NC1CCNCC1 (stereo not drawn) [Compound 106, 3-(1-(cyclohexylmethyl)-1H-indol-3-yl)-N,3-di(piperidin-4-yl)propanamide hydrochloride salt]
[1]
  MIC: 512 µg/mL
[2]
  IC50: 1220 µM
[3]
  MIC: 512 µg/mL

## Cc1cccc(C(CC(=O)N(C)C2CCNCC2)c2cn(CC3CCCCC3)c3ccccc23)c1.Cl (stereo not drawn) [Compound 279, 3-(1-(cyclohexylmethyl)-1H-indol-3-yl)-N-methyl-N-(piperidin-4-yl)-3-(m-tolyl)propanamide hydrochloride salt]
[1]
  MIC: 8 µg/mL
[2]
  IC50: 34 µM
[3]
  MIC: 65 µg/mL

## Cc1cccc(C(CCN[C@H]2CC[C@H](O)CC2)c2cn(CC3CCCCC3)c3ccccc23)c1.Cl (stereo partly drawn) [Compound 218, (1R,4R)-4-((3-(1-(cyclohexylmethyl)-1H-indol-3-yl)-3-(m-tolyl)propyl)amino) cyclohexan-1-ol hydrochloride salt]
[1]
  MIC: 8 µg/mL
[2]
  IC50: 45 µM
[3]
  MIC: > 512 µg/mL

## Cl.N[C@H]1CC[C@H](NCCC(c2cn(CC3CCCCC3)c3ccccc23)C2CCCCC2)CC1 (stereo partly drawn) [Compound 204, (1rR4R)-N1-(3-cyclohexyl-3-(1-(cyclohexylmethyl)-1H-indol-3-yl)propyl) cyclohexane-1,4-diamine hydrochloride salt]
[1]
  MIC: 2 µg/mL
[2]
  IC50: 50 µM
[3]
  MIC: 4 µg/mL

## Cl.N[C@H]1CC[C@H](NC(=O)CCc2nn(CC3CCCCC3)c3ccc(Br)cc23)CC1 [Compound 270, N-((1r,4r)-4-aminocyclohexyl)-3-(5-bromo-1-(cyclohexylmethyl)-1H-indazol-3-yl)propanamide hydrochloride salt]
[1]
  MIC: 64 µg/mL
[2]
  IC50: 135 µM
[3]
  MIC: 127 µg/mL

## Cc1cccc(C(CC(=O)NC2CCC(N)CC2)c2cn(CC34CC5CC(CC(C5)C3)C4)c3ccccc23)c1.Cl [Compound 223, 3-(1-(((1S,3S)-adamantan-1-yl)methyl)-1H-indol-3-yl)-N-((1s,4s)-4-aminocyclohexyl)-3-(m-tolyl)propanamide hydrochloride salt]
[1]
  MIC: 2 µg/mL
[2]
  IC50: 8 µM
[3]
  MIC: > 512 µg/mL

## Cc1ccc(C(CC(=O)NC2CCC(N)CC2)c2cn(CC3CCCCC3)c3ccccc23)cc1.Cl [Compound 140, N-((1S,4S)-4-aminocyclohexyl)-3-(1-(cyclohexylmethyl)-1H-indol-3-yl)-3-(p-tolyl)propanamide hydrochloride salt]
[1]
  MIC: 8 µg/mL
[2]
  IC50: 34 µM
[3]
  MIC: 64 µg/mL

## Cc1cccc(C(CC(=O)NC2CCC(N)CC2)c2c(C)n(CC3CCCCC3)c3ccccc23)c1.Cl [Compound 243, N-((1S,4S)-4-aminocyclohexyl)-3-(1-(cyclohexylmethyl)-2-methyl-1H-indol-3-yl)-3-(m-tolyl)propanamide hydrochloride salt]
[1]
  MIC: 17 µg/mL
[2]
  IC50: 35 µM
[3]
  MIC: > 512 µg/mL

## Cl.N[C@H]1CC[C@H](NC(=O)CC(c2cn(CC3CCCCC3)c3ccccc23)C2CCOCC2)CC1 (stereo partly drawn) [Compound 132, N-((1R,4R)-4-aminocyclohexyl)-3-(1-(cyclohexylmethyl)-1H-indol-3-yl)-3-(tetrahydro-2H-pyran-4-yl)propanamide hydrochloride salt]
[1]
  MIC: 128 µg/mL
[2]
  IC50: 191 µM
[3]
  MIC: > 512 µg/mL

## Cc1cccc(C(CC(=O)N[C@H]2CC[C@H](N)CC2)c2cn(CC3CCCCC3)c3ccc(-c4ccccc4Cl)cc23)c1.Cl (stereo partly drawn) [Compound 205, N-((1R,4R)-4-aminocyclohexyl)-3-(5-(2-chlorophenyl)-1-(cyclohexylmethyl)-1H-indol-3-yl)-3-(m-tolyl)propanamide hydrochloride salt]
[1]
  MIC: 158 µg/mL
[2]
  IC50: 3.2 µM
[3]
  MIC: > 512 µg/mL

## Cc1cccc(C(CC(=O)NC2CCC(N)CC2)c2cn(CC3CCCCC3)c3cc(Br)ccc23)c1.Cl [Compound 175, N-((1S,4S)-4-aminocyclohexyl)-3-(6-bromo-1-(cyclohexylmethyl)-1H-indol-3-yl)-3-(m-tolyl)propanamide hydrochloride salt]
[1]
  MIC: 2 µg/mL
[2]; hydrochloride salt
  IC50: 59 µM
[3]
  MIC: > 512 µg/mL

## Cc1cccc(C(CCN(C)C2CCNCC2)c2cn(CC3CCCCC3)c3ccc(Br)cc23)c1 (stereo not drawn) [Compound 291, N-(3-(5-bromo-1-(cyclohexylmethyl)-1H-indol-3-yl)-3-(m-tolyl)propyl)-N-methylpiperidin-4-amine hydrochloride salt]
[1]
  MIC: 2 µg/mL
[2]
  IC50: 10 µM
[3]
  MIC: 10 µg/mL

## FC1(F)CCC(Cn2cc(CCCNC3CCNCC3)c3cc(Br)ccc32)CC1 [Compound 295, N-(3-(5-bromo-1-((4,4-difluorocyclohexyl)methyl)-1H-indol-3-yl)propyl)piperidin-4-amine hydrochloride salt]
[1]
  MIC: 9 µg/mL
[2]
  IC50: 50 µM
[3]
  MIC: 17 µg/mL

## Cc1cccc(C(CC(=O)NC2CCC(N)CC2)c2cn(CC3CCCCC3)c3ccc(-c4ccccc4C)cc23)c1.Cl [Compound 221, N-((1S,4S)-4-aminocyclohexyl)-3-(1 - (cyclohexylmethyl)-5-(o-tolyl)-1H-indol-3-yl)-3-(m-tolyl)propanamide hydrochloride salt]
[1]
  MIC: 38 µg/mL
[2]
  IC50: 3.4 µM
[3]
  MIC: > 512 µg/mL

## Cc1cccc(C(CC(=O)NC2CCC(CN)CC2)c2cn(CC3CCCCC3)c3ccccc23)c1.Cl (stereo not drawn) [Compound 182, N-((1r,4r)-4-(aminomethyl)cyclohexyl)-3-(1-(cyclohexylmethyl)-1H-indol-3-yl)-3-(m-tolyl)propanamide hydrochloride salt]
[1]
  MIC: 17 µg/mL
[2]
  IC50: 17 µM
[3]
  MIC: > 512 µg/mL

## NC1CCC(NC(=O)CC(c2cnc3ccccc3c2)c2cn(CC3CCCCC3)c3ccccc23)CC1 [Compound 142, N-((1S,4S)-4-aminocyclohexyl)-3-(1-(cyclohexylmethyl)-1H-indol-3-yl)-3-(quinolin-3-yl)propanamide hydrochloride salt]
[1]
  MIC: 8 µg/mL
[2]
  IC50: 44 µM
[3]
  MIC: 32 µg/mL

## Cc1cccc(C(CC(=O)N[C@H]2CC[C@H](N(C)C)CC2)c2cn(CC3CCCCC3)c3ccccc23)c1.Cl (stereo partly drawn) [Compound 146, 3-(1-(cyclohexylmethyl)-1H-indol-3-yl)-N-((1R,4R)-4-(dimethylamino)cyclohexyl)-3-(m-tolyl)propanamide hydrochloride salt]
[1]
  MIC: 8 µg/mL
[2]
  IC50: 52 µM
[3]
  MIC: 256 µg/mL

## Cc1cccc(C(CC(=O)NC2CCNCC2)c2cn(CC3CC3)c3ccccc23)c1.Cl (stereo not drawn) [Compound 123, 3-(1-(cyclopropylmethyl)-1H-indol-3-yl)-N-(piperidin-4-yl)-3-(m-tolyl)propanamide hydrochloride salt]
[1]
  MIC: 64 µg/mL
[2]
  IC50: 389 µM
[3]
  MIC: 256 µg/mL

## Cl.NC1CCC(NC(=O)CCc2cn(CC3CCCCC3)c3ccc(-c4ccccc4Cl)cc23)CC1 [Compound 239, N-((1S,4S)-4-aminocyclohexyl)-3-(5-(2-chlorophenyl)-1-(cyclohexylmethyl)-1H-indol-3-yl)propanamide hydrochloride salt]
[1]
  MIC: 4 µg/mL
[2]
  IC50: 2.9 µM
[3]
  MIC: 271 µg/mL
